Results published in article PMC9227096, “Design, Synthesis, and In Vitro, In Silico and In Cellulo Evaluation of New Pyrimidine and Pyridine Amide and Carbamate Derivatives as Multi-Functional Cholinesterase Inhibitors” (Pharmaceuticals, 2022).
Read-outs that look alike come from different tables or passages of the source.

What was measured:
Type in all cases: biochemical
[1] = target: T1, Electrophorus electricus AChE (EeAChE) (Electrophorus electricus, UniProt O42275); experiment: Ellman's spectrophotometric method, percent inhibition of EeAChE (zero time and after 1 h incubation); conditions: for % Inhibition vs. EeAChE ± SD: [I] 9 µM; for inhibition at 0.9 µM: read-out: % Inhibition vs. EeAChE ± SD, [I] 900 nM
T1 construct: purchased Sigma-Aldrich (Milan, Italy)
T1 sequence (O42275 24-633): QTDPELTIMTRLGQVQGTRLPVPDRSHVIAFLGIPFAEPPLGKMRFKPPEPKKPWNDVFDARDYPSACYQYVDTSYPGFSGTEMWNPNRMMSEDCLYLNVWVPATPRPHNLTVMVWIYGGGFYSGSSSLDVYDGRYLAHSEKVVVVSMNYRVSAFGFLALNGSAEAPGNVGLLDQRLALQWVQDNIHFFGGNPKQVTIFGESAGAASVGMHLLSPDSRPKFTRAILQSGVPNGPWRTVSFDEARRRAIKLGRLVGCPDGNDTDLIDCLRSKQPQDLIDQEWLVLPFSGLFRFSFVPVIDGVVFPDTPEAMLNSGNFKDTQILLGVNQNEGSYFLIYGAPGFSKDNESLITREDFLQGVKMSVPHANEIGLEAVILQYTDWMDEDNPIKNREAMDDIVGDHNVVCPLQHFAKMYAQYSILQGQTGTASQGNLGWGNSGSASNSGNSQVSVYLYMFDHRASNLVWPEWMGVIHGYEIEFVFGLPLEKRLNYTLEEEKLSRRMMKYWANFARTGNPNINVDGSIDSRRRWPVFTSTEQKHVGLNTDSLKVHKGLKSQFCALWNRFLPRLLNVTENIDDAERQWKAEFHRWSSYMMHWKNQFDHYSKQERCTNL
Protocol: (§1) Regarding the synthesized compounds enzymatic inhibition studies were carried out on Electrophorus electricus AChE (EeAChE) and equine BChE (eqBChE), according to Ellman’s spectrophotometric method.
(§2) All other chemical and biological reagents and solvents used were of the highest analytical, commercially available grade. The water, utilized for the preparation of the phosphate buffer and of the solutions of compounds, was distilled and filtered on nylon membrane filters with 0.2 μm pore size with the Millipore® Filtration apparatus before each use. Micropipettes Labmate (BRAND Dig. 10–100 μL; Dig. 100–1000 μL; Dig. 0.1–2 μL) and Transferpette (HIGH TECH LAB LM200: 20–200 μL; LM5000: 1000–5000 μL) were used to collect the samples. The assays were carried out by double beam UV–Vis Lambda 40 Perkin Elmer spectrophotometer, using optical polystyrene cuvettes (10 × 10 × 45 mm, 340–800 nm optical transparency), each measure was repeated at least in triplicate. […] Vivaspin® 2 Sartorius, with a membrane of 3000 MWCO (molecular weight cutoff) consisting of polyethersulfone (PES), cellulose triacetate (CTA) and hydrosart, was used for the ultrafiltration procedures. An ALC PK110 bench-top centrifuge was used for centrifugation. The spectrophotometric method of Ellman, with minor modifications, was used to evaluate the inhibition of cholinesterase enzymes. […] EeAChE and eqBChE were periodically tested to evaluate the effective enzymatic activity.
(§3) An amount of 3.0 mL of a solution in 0.1 M phosphate buffer (pH = 7.4) containing DTNB (0.25 mM) and EeAChE (0.083 UmL^−1) or eqBChE (0.083 UmL^−1) were placed in a polystyrene cuvette of 1.0 cm path length; 1 µL of a solution in DMSO of the tested compound was added to obtain in cuvette concentration range 9 µM–0.09 µM. With this solution the blank was made.
(§4) Each experiment was repeated at least in triplicate.
(§5) The cuvettes were prepared consecutively at intervals of 3 min to allow equal incubation times.

equine BChE (eqBChE) [2] = target: T2, equine BChE (eqBChE) (Equus caballus, UniProt P81908); experiment: Ellman's spectrophotometric method, percent inhibition of eqBChE (zero time and after 1 h incubation); conditions: for inhibition at 9 µM / % Inhibition vs. eqBChE ± SD: [I] 9 µM; for inhibition at 9 µM / inhibition at 0.9 µM: read-out: % Inhibition vs. eqBChE ± SD
T2 construct: purchased Sigma-Aldrich (Milan, Italy)
T2 sequence (P81908 whole entry): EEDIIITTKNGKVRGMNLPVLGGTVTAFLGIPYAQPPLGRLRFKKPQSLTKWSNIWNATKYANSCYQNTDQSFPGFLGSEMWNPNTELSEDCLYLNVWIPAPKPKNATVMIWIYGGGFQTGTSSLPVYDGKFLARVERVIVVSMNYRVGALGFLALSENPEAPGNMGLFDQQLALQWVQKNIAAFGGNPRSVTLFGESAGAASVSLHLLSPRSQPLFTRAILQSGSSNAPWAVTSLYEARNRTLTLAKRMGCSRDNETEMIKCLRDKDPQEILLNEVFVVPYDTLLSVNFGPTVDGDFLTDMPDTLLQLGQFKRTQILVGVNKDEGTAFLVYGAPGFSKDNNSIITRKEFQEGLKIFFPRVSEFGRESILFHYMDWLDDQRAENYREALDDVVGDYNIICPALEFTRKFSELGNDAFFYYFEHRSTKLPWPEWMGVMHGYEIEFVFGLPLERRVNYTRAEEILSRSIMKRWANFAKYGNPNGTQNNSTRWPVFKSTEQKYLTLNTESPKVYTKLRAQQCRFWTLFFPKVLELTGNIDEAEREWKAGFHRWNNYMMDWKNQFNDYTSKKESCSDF
Protocol: as §1, §2, §3, §4, §5

equine BChE (eqBChE) [3] = target: T2, equine BChE (eqBChE); experiment: Reversibility of inhibition vs. eqBChE (ultrafiltration and washing); conditions: for inhibition at 54 µM: carbaryl 54 µM
Protocol: Moreover, it was evaluated whether the inhibition mechanism of carbamate 18 towards eqBChE is reversible, irreversible or pseudo-irreversible. For this purpose, the percentages of inhibition were determined both after one hour of the incubation of compound 18 (5.4 µM) with eqBChE (1.25 U), both following the removal of the inhibitor and the washing of the enzyme, carried out through ultrafiltration devices for the concentration of biological samples [35, 36]. To validate the method, the same study was performed with carbaryl (54 µM), a known carbamoylating cholinesterase inhibitor.
After the incubation phase, the solution containing the inhibitor not bound to the enzyme was removed by centrifugation, retaining eqBChE on the membrane of the ultrafiltration devices. Then the enzyme was washed with phosphate buffer, to remove the bound inhibitor and to restore the enzyme activity.
Three solutions were prepared in 0.1 M phosphate buffer (pH = 7.4), containing eqBChE (0.50 UmL^−1), DTNB (0.3 mM) and acetylthiocholine (10 mM), respectively. A solution of compound 18 in DMSO (2.7 mM) was prepared. Then six Vivaspin® were used: • three were prepared with 2.5 mL of eqBChE solution (0.50 UmL^−1) and 5 µL of inhibitor solution; • three were prepared with 2.5 mL of eqBChE solution (0.50 UmL^−1) and 5 µL of DMSO.
The Vivaspin® thus prepared were incubated for 1 h at 25 °C. After this time the percentage of inhibition was determined following the Ellman method. The blank was recorded by taking 500 µL from the Vivaspin® and diluting them in the cuvette in 2.5 mL of DTNB solution (0.3 mM). The reaction was activated by adding 30 μL of acetylthiocholine solution (10 mM), so as to obtain a final concentration of 100 µM in the cuvette. The absorbance variation was measured between 0.5 and 1.5 min at 412 nm, repeating the measurement for each of the six Vivaspin®.
After this procedure the first centrifugation of the Vivaspin® was carried out for 60 min at 4000 rpm and subsequently the solutions that crossed the membrane and settled in the filtrate tube were removed. In this way the solutions present in the concentrator body were concentrated up to 100 µL. To these solutions 1 mL of 0.1 M phosphate buffer (pH = 7.4) was added and the second centrifugation was carried out for 30 min at 4000 rpm. The solutions present in the concentrator body were concentrated up to 200 µL. The second washing was carried out, adding 1 mL of buffer and centrifuging for 30 min at 4000 rpm. The solutions present in the concentrator body were concentrated up to 250 µL. A third wash was carried out adding 1 mL of buffer and centrifuging for 50 min at 4000 rpm. The solutions present in the concentrator body were concentrated up to 150 µL. At this point, to recover the concentrated solution, the filtrate tube was removed, the concentrator body was turned upside down and inserted inside the concentrate recovery cap. The Vivaspin® was centrifuged for 10 min at 4000 rpm. After this time the recovered solution was taken up with 3 mL of DTNB solution (0.3 mM) and transferred into the cuvette: blank was recorded. The reaction was activated when 30 µL of substrate solution (10 mM) were added so as to have a final concentration of 100 µM in the cuvette. The absorbance variation between 0.5 and 1.5 min was measured at 412 nm, repeating the measurement for each of the recovered solutions.
As a positive control carbaryl was used, for which the same procedure was followed, using a 27 mM carbaryl stock solution in DMSO.

[4] = read-out: % Inhibition vs. EeAChE ± SD, [I] 9 µM, 0.0833 U/mL enzyme, 100 µM acetylthiocholine
[5] = 0.0833 U/mL enzyme, 100 µM acetylthiocholine
[6] = [I] 900 nM, 0.0833 U/mL enzyme, 100 µM acetylthiocholine
[7] = 1 h, read-out: % Inhibition vs. EeAChE ± SD, [I] = 9 µM, t = 1 h incubation at 25 °C
[8] = 1 h, [I] = 900 nM, t = 1 h incubation at 25 °C

O=C(NCCCCCCNc1ncccn1)c1ccccc1 [Compound 3, N-(6-(pyrimidin-2-ylamino)hexyl)benzamide]
inhibition at 9 µM [1, 4]: ~3% | inhibition at 9 µM (equine BChE (eqBChE) [2]; [5]): ~9%

O=C(Cc1ccccc1)NCCCCCCNc1ncccn1 [Compound 4, 2-phenyl-N-(6-(pyrimidin-2-ylamino)hexyl)acetamide]
inhibition at 9 µM [1, 4]: 5 ± 4.4% | inhibition at 9 µM (equine BChE (eqBChE) [2]; [5]): 5.1 ± 4.7%

O=C(Cc1ccc(Oc2ccccc2)cc1)NCCCCCCNc1ncccn1 [Compound 5, 2-(4-phenoxyphenyl)-N-(6-(pyrimidin-2-ylamino)hexyl)acetamide]
inhibition at 9 µM [1, 4]: 10.8 ± 2.7% | inhibition at 9 µM (equine BChE (eqBChE) [2]; [5]): 16.6 ± 5.5%

O=C(C=Cc1ccccc1)NCCCCCCNc1ncccn1 [Compound 6, N-(6-(pyrimidin-2-ylamino)hexyl)cinnamamide]
% Inhibition vs. EeAChE ± SD [1, 5]: ns ^c | inhibition at 0.9 µM [1, 5]: 7 ± 1.6% | % Inhibition vs. eqBChE ± SD (equine BChE (eqBChE) [2]; [5]): ns ^c

O=C(NCCCCCCNc1ncccn1)c1ccc(Br)cc1 [Compound 7, 4-bromo-N-(6-(pyrimidin-2-ylamino)hexyl)benzamide]
inhibition at 9 µM [1, 4]: 11.2 ± 5% | inhibition at 9 µM (equine BChE (eqBChE) [2]; [5]): 7.4 ± 2%

O=C(NCCCCCCNc1ncccn1)c1ccc(Cl)cc1 [Compound 8, 4-chloro-N-(6-(pyrimidin-2-ylamino)hexyl)benzamide]
inhibition at 9 µM [1, 4]: 9.9 ± 0.8% | inhibition at 9 µM (equine BChE (eqBChE) [2]; [5]): 2.1 ± 3.5%

COc1ccccc1C(=O)NCCCCCCNc1ncccn1 [Compound 9, 2-methoxy-N-(6-(pyrimidin-2-ylamino)hexyl)benzamide]
inhibition at 9 µM [1, 4]: 7.2 ± 0.8% | inhibition at 9 µM (equine BChE (eqBChE) [2]; [5]): 9.3 ± 2.4%

O=C(NCCCCCCNc1ncccn1)c1cc2ccccc2[nH]1 [Compound 11, N-(6-(pyrimidin-2-ylamino)hexyl)-1H-indole-2-carboxamide]
% Inhibition vs. EeAChE ± SD [1, 5]: ns ^c | inhibition at 0.9 µM [1, 5]: 5.5 ± 1.4% | inhibition at 0.9 µM (equine BChE (eqBChE) [2]; [6]): 14.1 ± 4.7% | % Inhibition vs. eqBChE ± SD (equine BChE (eqBChE) [2]; [5]): ns ^c

O=C(Cc1ccccc1)NCCCCCCNc1ccccn1 [Compound 13, 2-phenyl-N-(6-(pyridine-2-ylamino)hexyl)acetamide]
inhibition at 9 µM [1, 4]: 46.7 ± 1.1% | inhibition at 0.9 µM (equine BChE (eqBChE) [2]; [6]): 4.3 ± 5.6% | inhibition at 9 µM (equine BChE (eqBChE) [2]; [5]): 49.1 ± 3.2%

O=C(C=Cc1ccccc1)NCCCCCCNc1ccccn1 [Compound 15, N-(6-(pyridin-2-ylamino)hexyl)cinnamamide]
inhibition at 9 µM [1, 4]: 45.4 ± 2.5% | inhibition at 0.9 µM (equine BChE (eqBChE) [2]; [6]): 31.5 ± 3.1% | inhibition at 9 µM (equine BChE (eqBChE) [2]; [5]): 64.7 ± 2.9%

O=C(NCCCCCCNc1ncccn1)Oc1ccccc1 [Compound 16, Phenyl (6-(pyrimidin-2-ylamino)hexyl)carbamate]
inhibition at 9 µM [1, 7]: 7.2 ± 0.8% | inhibition at 0.9 µM (equine BChE (eqBChE) [2]; [8]): 66.4 ± 5.9%

O=C(NCCCCCCNc1ncccn1)OCc1ccccc1 [Compound 17, Benzyl (6-(pyrimidin-2-ylamino)hexyl)carbamate]
inhibition at 9 µM [1, 7]: 10.9 ± 1.4% | inhibition at 0.9 µM (equine BChE (eqBChE) [2]; [8]): 13.3 ± 3.9%

O=C(NCCCCCCNc1ccccn1)OCc1ccccc1 [Compound 19, Benzyl (6-(pyridin-2-ylamino)hexyl)carbamate]
inhibition at 9 µM [1, 7]: 45.4 ± 2.7% | inhibition at 0.9 µM (equine BChE (eqBChE) [2]; [8]): 32.4 ± 7.5%

CNC(=O)Oc1cccc2ccccc12 [carbaryl, reference compound]
inhibition at 54 µM (equine BChE (eqBChE) [3]; after ultrafiltration and washing with phosphate buffer, read-out: percentage of inhibition of eqBChE after removal of inhibitor and washing of the enzyme): 29.9% | inhibition at 54 µM (equine BChE (eqBChE) [3]; before washing, read-out: percentage of inhibition of eqBChE after one hour of incubation): 97.4% | inhibition mechanism towards eqBChE (reversible, irreversible or pseudo-irreversible) (equine BChE (eqBChE) [3]; from restoration of enzymatic activity after washing): pseudo-irreversible
